Experiments:
[1] = test system: Bacillus subtilis ATCC 6633; assay: double-dosage method of diffusion in agar; assay type: cell-based; conditions: for relative activity, Bacillus subtilis ATCC 6633: activity of rifampicin taken as 1000, agar diffusion, 5 and 10 μg/ml, pH 7.4; for antibiotic activity compared with rifampicine (in words): against Bacillus subtilis
[2] = test system: Pseudomonas aeruginosa; assay: double-dosage method of diffusion in agar; conditions: for relative activity, Pseudomonas aeruginosa: activity of rifampicin taken as 1000, agar diffusion, 5 and 10 μg/ml, pH 7.4
Description: (§1) This test is based on the logarithmic dependence between the size of the inhibition area associated with the bacterial growth in a layer of agar (response) and the quantity of the applied antibiotic.
(§2) From these solutions buffered solutions were prepared in phosphate buffer, pH 7.4 at concentrations of 5 and 10 μg/ml.
(§3) An initial suspension of the test microorganism (Bacillus subtilis ATCC 6633, Escherichia coli, Bacillus mycoide, Klebsiella pneumoniae, Pseudomonas aeruginosa) was prepared having a UV-light transmission of about 25%. A suitable diffusion medium (for example for Bacillus subtilis: 1 g pepton, 3 g yeast extract, 15-18 g agar, in 1 l water, pH 7.8-8.0 after sterilization) was inoculated with 0.5 ml of the initial suspension per 100 ml medium at a temperature of 60-65° C. 20 ml of the mixture each was filled into Petri's dishes (diameter 100 mm). After hardening of the medium four pits (diameter 5 mm) were placed in each dish and onto every pit 90 μl of the solutions of the reference and the tested compounds were added. The dishes were incubated at 37° C. for at least 15 hours. The sizes (diameters) of the areas of inhibition were then measured with an accuracy of 0.1 mm.
(§4) The activity A was calculated according to • lg A=(lv/w) with • I=lg (high concentration/low concentration), • v=(ΣX1+ΣX2)−(ΣP1+ΣP2), and • w=(ΣX2+ΣP2)−(ΣX1+ΣP1), with • X1: area size in mm at low concentration of the sample, • X2: area size in mm at high concentration of the sample, • P1: area size in mm at low concentration of the reference, • P2: area size in mm at low concentration of the reference,

[3] = test system: Escherichia coli; assay: double-dosage method of diffusion in agar; conditions: for relative activity, Escherichia coli: activity of rifampicin taken as 1000, agar diffusion, 5 and 10 μg/ml, pH 7.4
Description: as §1, §2, §3, §4

[4] = test system: M. tuberculosis H37Rv; assay: ex vivo anti-mycobacterial activity, growth in mouse macrophages; assay type: cell-based, Mycobacterium tuberculosis; conditions: for Macrophage Data, Monolayer 1 / Macrophage Data, Monolayer 2 / Macrophage Data, Monolayer 3 / Macrophage Data, Monolayer 4 / Macrophage Data, Monolayer mean: J774 mouse macrophages infected with M. tuberculosis H37Rv; for Macrophage Data, Monolayer 1 / Macrophage Data, Monolayer 2 / Macrophage Data, Monolayer 3 / Macrophage Data, Monolayer 4: 24 hours with compound; for in vitro and ex vivo activity against Mycobacterium tuberculosis compared with rifampicine (in words): general statement of the description; for Macrophage Data, Monolayer mean: mean of monolayers 1-4, 24 hours
[5] = test system: Bacillus mycoide; assay: double-dosage method of diffusion in agar; conditions: activity of rifampicin taken as 1000, 5 and 10 μg/ml, pH 7.4
Description: as §1, §2
An initial suspension of the test microorganism (Bacillus subtilis ATCC 6633, Escherichia coli, Bacillus mycoide, Klebsiella pneumoniae, Pseudomonas aeruginosa) was prepared having a UV-light transmission of about 25%. A suitable diffusion medium (for example for Bacillus subtilis: 1 g pepton, 3 g yeast extract, 15-18 g agar, in 1 l water, pH 7.8-8.0 after sterilization) was inoculated with 0.5 ml of the initial suspension per 100 ml medium at a temperature of 60-65° C. 20 ml of the mixture each was filled into Petri's dishes (diameter 100 mm). […] The sizes (diameters) of the areas of inhibition were then measured with an accuracy of 0.1 mm.
as §4

[6] = test system: Klebsiella pneumoniae; assay: double-dosage method of diffusion in agar; conditions: for relative activity, Klebsiella pneumoniae: activity of rifampicin taken as 1000, agar diffusion, 5 and 10 μg/ml, pH 7.4
Description: as §1, §2, §3, §4

| SMILES | relative activity, Bacillus subtilis ATCC 6633 [1] | relative activity, Pseudomonas aeruginosa [2] | relative activity, Escherichia coli [3] | Macrophage Data, Monolayer 1 [4] [CFU/ml] | Macrophage Data, Monolayer 2 [4] [CFU/ml] | Macrophage Data, Monolayer 3 [4] [CFU/ml] | Macrophage Data, Monolayer 4 [4] [CFU/ml] | in vitro and ex vivo activity against Mycobacterium tuberculosis compared with rifampicine (in words) [4] | Macrophage Data, Monolayer mean [4] [CFU/ml] | relative activity, Bacillus mycoide [5] | relative activity, Klebsiella pneumoniae [6] | antibiotic activity compared with rifampicine (in words) ([1]; listed as N-(methyloxycarbonyl)-3-aminorifamycin S) | antibiotic activity compared with rifampicine (in words) ([1]; listed as methyl) | antibiotic activity compared with rifampicine (in words) ([2]; against P. aeruginosa) | antibiotic activity compared with rifampicine (in words) ([3]; against E. coli) | antibiotic activity compared with rifampicine (in words) ([6]; against K. pneumoniae) | antibiotic activity compared with rifampicine (in words) [1] |
| --- | --- | --- | --- | --- | --- | --- | --- | --- | --- | --- | --- | --- | --- | --- | --- | --- | --- |
| CCOC(=O)NC1=C2NC(=O)C(C)=CC=CC(C)C(O)C(C)C(O)C(C)C(OC(C)=O)C(C)C(OC)C=COC3(C)Oc4c(C)c(O)c(c(c4C3=O)C1=O)C2=O (stereo not drawn) [R = ethyl, N-(Ethyloxycarbonyl)-3-aminorifamycin S] | 2050 | 920 | 690 | 0.00 | 200.00 | 0.00 | 0.00 | at least as high or even higher as the activity of rifampicine | 50.00 | 1150 | 1030 |  |  |  |  |  |  |
| CO[C@H]1/C=C/O[C@@]2(C)Oc3c(C)c(O)c4c(O)c(c(/C=N/N5CCN(C)CC5)c(O)c4c3C2=O)NC(=O)/C(C)=C\C=C\[C@H](C)[C@H](O)[C@@H](C)[C@@H](O)[C@@H](C)[C@H](OC(C)=O)[C@@H]1C [rifampicine, reference compound] |  |  |  | 0.00 | 200.00 | 600.00 | 800.00 |  | 400.00 |  |  |  |  |  |  |  |  |
| COC(=O)NC1=C2NC(=O)C(C)=CC=CC(C)C(O)C(C)C(O)C(C)C(OC(C)=O)C(C)C(OC)C=COC3(C)Oc4c(C)c(O)c(c(c4C3=O)C1=O)C2=O (stereo not drawn) [R = methyl, N-(Methyloxycarbonyl)-3-aminorifamycin S] | 6000 | 1750 | 2100 | 0.00 | 0.00 | 0.00 | 200.00 | at least as high or even higher as the activity of rifampicine | 50.00 | 2000 | 1900 | twice as high as rifampicine | about six times higher than rifampicine | twice as high as rifampicine | twice as high as rifampicine | twice as high as rifampicine |  |
| COC1C=COC2(C)Oc3c(C)c(O)c4c(c3C2=O)C(=O)C(NC(=O)OCCBr)=C(NC(=O)C(C)=CC=CC(C)C(O)C(C)C(O)C(C)C(OC(C)=O)C1C)C4=O (stereo not drawn) [R = 2-bromoethyl, N-(2-Bromoethyloxycarbonyl)-3-aminorifamicin S] | 6600 |  |  |  |  |  |  |  |  |  |  |  |  |  |  |  | about six times higher than rifampicine |
| COC1C=COC2(C)Oc3c(C)c(O)c4c(c3C2=O)C(=O)C(NC(=O)OCc2ccc([N+](=O)[O-])cc2)=C(NC(=O)C(C)=CC=CC(C)C(O)C(C)C(O)C(C)C(OC(C)=O)C1C)C4=O (stereo not drawn) [R = 4-nitrobenzyl, N-(4-Nitrobenzyloxycarbonyl)-3-aminorifamicin S] | 5400 |  |  |  |  |  |  |  |  |  |  |  |  |  |  |  | about six times higher than rifampicine |
